Measured values as given in article PMC9229798, “Antioxidant Activity and Cytotoxicity of Aromatic Oligosulfides” (Molecules, 2022).
One block for each compound: values may come before it.

Tests used:
[1] = system: A-549; experiment: Annexin V/Dead Cell assay; assay type: cell-based, human; conditions: A-549, 2 × IC50, 48 h
Excerpt: (§1) Apoptosis or programmed cell death is an important and active regulatory pathway of cell growth and proliferation. Cells respond to specific induction signals by initiating intracellular processes that result in characteristic physiological changes. Among these are externalization of phosphatidylserine (PS) to the cell surface, cleavage and degradation of specific cellular proteins, compaction and fragmentation of nuclear chromatin, and loss of membrane integrity. Phosphatidylserine (PS) is normally located in the inner part of the cell membrane. In the initial stage of apoptosis, the PS residues which translocated to the extracellular are detected by Annexin V, which is a calcium-dependent phospholipid-binding protein with a high affinity for PS. Annexin V flow cytometric assay was used to evaluate the compounds’ ability to induce apoptosis and influence on cell death. HCT-116 colon carcinoma and A-549 lung adenocarcinoma cells were treated by disulfides 2 and 3.
(§2) HCT-116 (colon carcinoma) and A-549 (lung carcinoma) cells (1 × 10^6) were seeded in a six-well plate and were incubated for 24 h. […] After incubation, the cells were harvested by trypsinization, precipitated by centrifugation (3000 rpm), washed with PBS, recentrifuged, and the buffer was removed. DMEM was added to achieve a cell concentration of 400–1000 cells/µL. The Muse Annexin V & Dead Cell Kit reagent (100 µL) was added to the cells and […] for 20 min at room temperature in the dark. The results were recorded on a Muse Cell Analyzer flow cytometer (Merck, Rahway, NJ, USA).

[2] = system: SOD; parameters: method as in doi:10.3906/kim-1904-40; conditions: adrenaline oxidation with biopreparation; cited from earlier work
[3] = parameters: method as in doi:10.1016/j.arabjc.2021.103068; conditions: oleic acid, 1 mmol/L additive, 65 °C; cited from earlier work
[4] = parameters: method as in doi:10.1016/j.arabjc.2021.103068; conditions: read-out: DPPH IC50; cited from earlier work
[5] = TBARS accumulation in liver homogenate (long-term LPO); parameters: species or system Russian sturgeon; conditions: 0.1 mM
Excerpt: The liver is the main organ that all metabolic products pass through. In addition, proteins of the antioxidant defense system are concentrated in the liver, which prevent the toxic effects of various ROS. The oxidation of liver lipids, which compose cell membranes, directly causes cell damage in vivo. Therefore, the liver is similar to biological systems and is considered as a classic model system for studying LPO processes in vitro and in vivo [56]. We studied the antioxidant potential of the compounds on a model system of a long-term process of lipid peroxidation in sturgeon liver. The assay allowed evaluation of the effect of the compounds under prolonged oxidative stress when possible an increase in peroxidation processes and a decrease of antioxidants concentration over time, and inversion of antioxidant/prooxidant properties in vitro [57].
The experiments in vitro were carried out using the liver of a Russian sturgeon raised in a unique aqua complex for the reproduction of valuable fish species of the Federal Research Center Southern Scientific Center of the Russian Academy of Sciences within the framework of State Assignment (Project No. 122020100328-1). All manipulations were conducted according to the international rules GLP (Good Laboratory Practice). The samples of fish liver were fixed in the cold.
The LPO intensity was estimated according to the accumulation of carbonyl products forming a colored complex with thiobarbituric acid (TBARS). A liver of Russian sturgeon (10 g) was homogenized in the cold, and the studied compounds were added at a concentration of 0.1 mM in EtOH to a solution of 1.2% potassium chloride (390 mL) precooled to 0–4 °C. The absence of any influence of EtOH on the LPO rate in the control was preliminarily established under these conditions. […] The supernatant was sampled, and the extinction of sample was measured using a SF-103 spectrophotometer at λ = 532 nm relative to the control sample. […]

[6] = system: HCT-116; experiment: Annexin V/Dead Cell assay; assay type: cell-based, human
Excerpt: as §1, §2

Compound: COc1ccccc1SSc1ccccc1OC [Compound 2, bis(2-methoxyphenyl) disulfide]
- Early Apop. [1]: 24.0%
- total apoptotic cells [1]: 25.2%

Compound: c1ccc(SSc2ccccc2)cc1 [Compound 5, diphenyl disulfide]
- SOD Activity of Liver Sturgeon, % Inhibition [2]: 61 ± 4.8 %
- TBARS, % Inhibition [3]: 24.6 ± 0.29 %

Compound: CC(C)(C)c1cc(SSc2cc(C(C)(C)C)c(O)c(C(C)(C)C)c2)cc(C(C)(C)C)c1O [Compound 6, bis(3,5-di-tert-butyl-4-hydroxyphenyl) disulfide]
- IC50 [4]: 20.09 ± 0.02 µM
- SOD Activity of Liver Sturgeon, % Inhibition [2]: 85 ± 3.0 %
- TBARS, % Inhibition [3]: 73.1 ± 1.30 %

- melting point: 58 to 60 °C
Compound: c1ccc(SSSc2ccccc2)cc1 [Compound 1, diphenyl trisulfide]
- reduction of the level of TBARS ([5]; after 1 h of incubation): 64%
- reduction of the level of TBARS ([5]; after 24 h): 48%
- reduction of the level of TBARS ([5]; after 48 h): 37%

Compound: COc1ccc(SSc2ccc(OC)c(OC)c2)cc1OC [Compound 3, bis(3,4-dimethoxyphenyl) disulfide]
- Early Apop. [1]: 38.2%
- total apoptotic cells [1]: 42.6%
- Early Apop. ([6]; HCT-116, 2 × IC50, 24 h): 9.1%
- Late Apop./Dead ([6]; HCT-116, 2 × IC50, 24 h): 2.7%
- total apoptotic cells ([6]; HCT-116, 2 × IC50, 24 h): 11.8%
- Late Apop./Dead ([6]; HCT-116, 2 × IC50, 48 h): 17.7%
- total apoptotic cells ([6]; HCT-116, 2 × IC50, 48 h): 44%
